# Source: paper PMC6611794, “Development of a high-throughput strategy for discovery of potent analogues of antibiotic lysocin E” (Nature Communications, 2019)
# Where two headings read alike, the source gives them in different places. Where a SMILES comes first, the peptide text is derived from it. Bridges are numbered along the chain shown (N, C = ends). [ ]: non-standard residue; d: D form. The star is where a group is joined. Hexanoyl(3R-OH,5-Me) = CC(C)C[C@@H](O)CC(=O)*; dNMeF = CN[C@H](Cc1ccccc1)C(=O)O; dOrn = NCCC[C@@H](N)C(=O)O
# Key:
# [1] = Method: (§1) Preparation of LUVs consisting of PC/PG/MK-4 or PC/PG/UQ-10. To a solution of egg yolk phosphatidylcholine (9.48 mg, 12.4 µmol) and egg yolk phosphatidylglycerol (9.66 mg, 12.4 µmol) in CHCl3 (0.208 mL) was added a solution of MK-4 (2) or UQ-10 (3) (0.313 µmol) in CHCl3 (21.8 µL). The solution was concentrated, and dried under vacuum to for m a lipid thin film. The thin film was hydrated and suspended in carboxyfluorescein-containing buffer solution (0.500 mL, 5 mM HEPES, 20 mM carboxyfluorescein , pH 7.5) by vortexing and sonication. After five-times freeze-thaw cycles, the lipid suspension was extruded 19 times through a polycarbonate filter with 0.40 µm of pore siz e in the diameter.
# (§2) The external carboxyfluorescein -containing buffer was replaced with a carboxyfluorescein -free buffer solution (20 mM HEPES, 1 mM EDTA, pH 7.5) through size exclusion chromatography using disposable PD -10 column. Concentration of egg yolk phosphatidylcholine was determined by using Phospholipid C -Test Wako.
# (§3) The final concentration of egg yolk phosphatidylcholine was adjusted to 4.0 µM with the carboxyfluorescein -free buffer solution, and the solution was used for membrane disruption ass ay.
# Membrane disruption assay. […]
# (§4) to various concentrations as 5-fold serial dilutions. The solution of peptides (2 µL/well) and the carboxyfluorescein-encapsulated LUV suspension (200 µL/well) were mixed in black polystyrene flat-bottom 96-well plates. The final concentration of peptides ranged from 2970 nM to 0.950 nM. The plates were vortexed at room temperature for 30 min, and then fluorescence of carboxyfluorescein (Ex. 490 nm/Em. 517 nm) of each well was measured at room temperature on Gemini EM microplate reader. Trion X-100/H2O (5/95, 2 µL), MeOH/H2O (4/6, 2 µL), and the LUV suspension were mixed in each plate to determine 100% lysis. MeOH/H2O (4/6, 2 µL) and the LUV suspension were mixed in each plate to determine 0% lysis.
# (§5) The membrane disruption activities of tested peptides (I) were normalized against 100% lysis by Triton X -100 […]
# (§6) (Imax) and 0% lysis by MeOH/H2O (4/6) (I0) as following, where Ix is the fluorescence intensity (Supplementary Equation 2).
# (§7) I = 100 × (Ix – I0) / (Imax – I0) (2)
# (§8) The membrane-disrupting activities were evaluated as half-maximal response (EC50, nM) values by means of three replicates. Sigmoidal curve fittings were performed on R2 with drc package (Supplementary Figs S7–S9).3 Two-parameter logistic model was applied for the fitting.
# [2] = Liposomal membrane disruption assay (carboxyfluorescein LUVs); assay type: biochemical
# Method: as §1, §2, §3
# as §4, with “Membrane disruption assay. Peptides 1, A1–A22, B1–B5, and C1–C5 were diluted with MeOH/H2O (4/6) to various” for “to various”
# as §5, §6, §7, §8
# [3] = tested on: S. aureus Smith ATCC 13709; assay: Antimicrobial activity assay of bead-derived peptides (one-bead, microscale); assay type: cell-based, Staphylococcus aureus; design: key to antimicrobial activity: ++: inhibition; +: partial inhibition; -: no inhibition; conditions: 85% of one-bead-derived crude peptide, 40 μL Mueller Hinton Broth with 10% calf serum, 37 °C, 18 h
# Method: Finally, a microscale antimicrobial assay was developed to evaluate the activity of 1 in solution phase.
# Antimicrobial activity assay of bead-derived peptides. To the crude peptides in the 96-well round-bottom plate was added DMSO (1 µL/well). To the solution of peptides in each well was added a suspension of S. aureus Smith ATCC 13709 strain in 10% calf serum containing cation adjusted Müller Hinton Broth [40 µL, 2 ×10^5 colony forming units (CFU) , 21 g/L Müller Hinton Broth (Difco), 5 0 mg/L Ca2+ (adjusted with CaCl2• 2H2O), and 25 mg/L Mg 2+ (adjusted with MgCl 2•6H2O)]. The plate was incubated at 37 °C for 18 h, and the precipitation of the grown cells was examined. […]
# [4] = read-out: EC50 PC/PG/2 1st, PC/PG/2 LUVs, 1st experiment
# [5] = read-out: EC50 PC/PG/2 2nd, PC/PG/2 LUVs, 2nd experiment
# [6] = read-out: EC50 PC/PG/2 3rd, PC/PG/2 LUVs, 3rd experiment
# [7] = read-out: EC50 PC/PG/2, 30 min, room temperature, mean ± SD of three independent experiments
# [8] = 30 min, room temperature, mean ± SD of three independent experiments, read-out: EC50 PC/PG/3
# [9] = PC/PG/3 LUVs, 1st experiment, read-out: EC50 PC/PG/3 1st
# [10] = PC/PG/3 LUVs, 2nd experiment, read-out: EC50 PC/PG/3 2nd
# [11] = PC/PG/3 LUVs, 3rd experiment, read-out: EC50 PC/PG/3 3rd
SMILES,selectivity index (EC50 against PC/PG/3 divided by EC50 against PC/PG/2) [1],"EC50 [1, 4] [µM]","EC50 [1, 5] [µM]","EC50 [1, 6] [µM]","EC50 [1, 7] [µM]","EC50 [2, 8] [µM]","EC50 [2, 9] [µM]","EC50 [2, 10] [µM]","EC50 [2, 11] [µM]",antimicrobial activity ([3]; listed as YLOI),antimicrobial activity [3]
"CC[C@H](C)[C@@H]1NC(=O)[C@@H](Cc2c[nH]c3ccccc23)NC(=O)[C@@H](CCCN)NC(=O)[C@H](CCC(=O)O)NC(=O)[C@@H](CCCNC(=N)N)NC(=O)[C@H](CC(C)C)NC(=O)[C@@H](Cc2ccccc2)N(C)C(=O)CNC(=O)[C@H](Cc2ccc(O)cc2)NC(=O)[C@@H](CCCNC(=N)N)NC(=O)[C@@H](NC(=O)C[C@H](O)CC(C)C)[C@@H](C)OC(=O)[C@H]([C@@H](C)O)NC1=O [Peptide A7] ({Hexanoyl(3R-OH,5-Me)}-T[dR]YG[dNMeF]L[dR]E[dOrn][dW]IT; ester 1-C)",19.7,0.0246,0.0278,0.0149,0.0224 ± 0.0067,0.441 ± 0.136,0.334,0.595,0.395,+ and ++,–
"CC[C@H](C)[C@@H]1NC(=O)[C@@H](Cc2c[nH]c3ccccc23)NC(=O)[C@@H](CCCN)NC(=O)[C@H](CCC(=O)O)NC(=O)[C@@H](CCCNC(=N)N)NC(=O)[C@H](CC(C)C)NC(=O)[C@@H](Cc2ccccc2)N(C)C(=O)CNC(=O)[C@H](CC(N)=O)NC(=O)[C@@H](CCCNC(=N)N)NC(=O)[C@@H](NC(=O)C[C@H](O)CC(C)C)[C@@H](C)OC(=O)[C@H]([C@@H](C)O)NC1=O [Peptide A14] ({Hexanoyl(3R-OH,5-Me)}-T[dR]NG[dNMeF]L[dR]E[dOrn][dW]IT; ester 1-C)",> 19.7,0.118,0.0791,0.0319,0.0763 ± 0.0431,–,0.999,> 1.5,0.867,–,+
"CC(C)C[C@@H](O)CC(=O)N[C@@H]1C(=O)N[C@H](CCCNC(=N)N)C(=O)N[C@@H](C)C(=O)NCC(=O)N(C)[C@H](Cc2ccccc2)C(=O)N[C@@H](CC(C)C)C(=O)N[C@H](CCCNC(=N)N)C(=O)N[C@@H](CCC(=O)O)C(=O)N[C@H](Cc2ccc(O)cc2)C(=O)N[C@H](Cc2c[nH]c3ccccc23)C(=O)N[C@@H](Cc2ccc(O)cc2)C(=O)N[C@@H]([C@@H](C)O)C(=O)O[C@@H]1C [Peptide A15] ({Hexanoyl(3R-OH,5-Me)}-T[dR]AG[dNMeF]L[dR]E[dY][dW]YT; ester 1-C)",–,0.0576,0.0396,0.009,0.0354 ± 0.0246,0.268 ± 0.102,0.231,0.383,0.189,–,+
"CC[C@H](C)[C@@H]1NC(=O)[C@@H](Cc2c[nH]c3ccccc23)NC(=O)[C@@H](CCCN)NC(=O)[C@H](CCC(=O)O)NC(=O)[C@@H](CCCNC(=N)N)NC(=O)[C@H](CC(C)C)NC(=O)[C@@H](Cc2ccccc2)N(C)C(=O)CNC(=O)[C@H](CC(=O)O)NC(=O)[C@@H](CCCNC(=N)N)NC(=O)[C@@H](NC(=O)C[C@H](O)CC(C)C)[C@@H](C)OC(=O)[C@H]([C@@H](C)O)NC1=O [Peptide A16] ({Hexanoyl(3R-OH,5-Me)}-T[dR]DG[dNMeF]L[dR]E[dOrn][dW]IT; ester 1-C)",20.6,0.0701,0.0335,0.0171,0.0403 ± 0.0271,0.832 ± 0.243,0.892,1.04,0.565,–,+
"CC[C@H](C)[C@@H]1NC(=O)[C@@H](Cc2c[nH]c3ccccc23)NC(=O)[C@@H](Cc2ccc(O)cc2)NC(=O)[C@H](CCC(=O)O)NC(=O)[C@@H](CCCNC(=N)N)NC(=O)[C@H](CC(C)C)NC(=O)[C@@H](Cc2ccccc2)N(C)C(=O)CNC(=O)[C@H](CC(=O)O)NC(=O)[C@@H](CCCNC(=N)N)NC(=O)[C@@H](NC(=O)C[C@H](O)CC(C)C)[C@@H](C)OC(=O)[C@H]([C@@H](C)O)NC1=O [Peptide A17] ({Hexanoyl(3R-OH,5-Me)}-T[dR]DG[dNMeF]L[dR]E[dY][dW]IT; ester 1-C)",–,0.437,0.178,0.144,0.253 ± 0.16,> 1.5,> 1.5,> 1.5,> 1.5,–,+
